Key:
[1] = solubility in water; type: physicochemical; details: visible from unambiguous clouding of the sample
[2] = tested on: rat's paw; test: carrageenin-induced oedema of rat's paw; type: in vivo; details: 50 mg/kg i.p.
Excerpt: This method is an adequate model of asthma bronchiale forms in experimental animals with involvement of IgE-dependent and IgG-dependent allergic reactions /R. Andersson, Brit. J. Pharmacol. 77, 301 (1982)/. The conclusion was, therefore, drawn that the comounds of general Formula I, according to this invention, should, as well, have clearly pronounced antiphlogistic properties. That conclusion was positively verified in vivo by an appropriate inflammatory model in the context of an animal experiment, using carragheenin--induced oedema of rat's paw. The experimental model was handled according to a method proposed by Winter and co-workers /C. A. Winter, E. A. Risley, and G. W. Nuss, Proc. Soc. Exp. Biol. Med. 111, 544 (1962)/ (cf. Example 19).
Inhibition of carrageenin-induced oedema of rat's paw:
Testing is conducted by methods common in international practice /C.A. Winter, E. A. Risley and G. W. Nuss, Proc. Soc. Exp. Biol. Med. 111, 544 (1962)/. Ten rats received intraperitoneal injections of 50 mg/kg body weight of 5-methyl-2-hydroxy-laurophenone-oxime in parallel with 0.1 ml of 0.1-per-cent carrageenin solution (per animal). The development of paw oedema was measured in one-hour intervals, following application, and compared with manifestations in a control group.

[3] = molecular target: T1, lipoxygenase from rabbit reticulocytes (Oryctolagus cuniculus, UniProt P12530); test: inhibition of activity of lipoxygenase from rabbit reticulocytes; type: biochemical
T1 construct: Lipoxygenase from rabbit reticulocytes was obtained in electrophoretically and immunologically pure form; from tissue; host or cells: rabbit reticulocytes
T1 sequence (P12530 1-663): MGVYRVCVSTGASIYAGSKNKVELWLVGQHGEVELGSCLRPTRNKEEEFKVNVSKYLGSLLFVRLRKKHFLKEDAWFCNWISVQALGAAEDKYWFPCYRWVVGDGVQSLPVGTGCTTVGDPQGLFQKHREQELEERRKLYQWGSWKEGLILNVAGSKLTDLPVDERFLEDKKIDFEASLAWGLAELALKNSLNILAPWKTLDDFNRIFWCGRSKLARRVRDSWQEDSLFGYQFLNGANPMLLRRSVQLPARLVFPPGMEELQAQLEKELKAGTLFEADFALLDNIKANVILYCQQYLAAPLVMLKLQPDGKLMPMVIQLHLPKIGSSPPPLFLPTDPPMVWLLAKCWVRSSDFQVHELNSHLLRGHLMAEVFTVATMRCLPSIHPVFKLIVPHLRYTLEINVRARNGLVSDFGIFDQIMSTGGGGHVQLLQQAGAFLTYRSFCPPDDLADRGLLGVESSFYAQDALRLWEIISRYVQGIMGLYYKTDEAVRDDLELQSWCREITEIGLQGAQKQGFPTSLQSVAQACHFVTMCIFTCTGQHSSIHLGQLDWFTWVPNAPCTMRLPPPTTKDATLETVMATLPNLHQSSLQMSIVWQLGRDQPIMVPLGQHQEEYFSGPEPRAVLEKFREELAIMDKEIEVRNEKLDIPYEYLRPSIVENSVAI
Experimental: Persuasive evidence to inhibition of lipoxygenase was produced by a suitable animal lipoxygenase which had been isolated from rabbit reticulocytes, using a method by Rapoport and coworkers /S. M. Rapoport et al., Eur. J. Biochem. 96, 545 (1979)/. A final concentration of 1 mM of most of the compounds, according to this invention, produced inhibition of 90 percent or more (cf. Example 20). Significant inhibition was even recordable from a final concentration of 0.1 mM of some of the compounds, according to this invention. Substance concentrations were varied to determine the titration curves of inhibition and from these the half-inhibition concentrations (I50 -values). A half-inhibition concentration of 7 μM was established for 5-methyl-2-hydroxy-laurophenone-oxime, an oxime of high anti-asthmatic effectiveness.
Inhibition of activity of lipoxygenase from rabbit reticulocytes:
Lipoxygenase from rabbit reticulocytes was obtained in electrophoretically and immunologically pure form by means of the method described in the literature /S. M. Rapoport et al., Eur. J. Biochem. 96, 545 (1979)/. Lipoxygenase activity was determined at 25° C. by amperometric measurement of oxygen consumption by means of a Clark electrode in the following system: 0.1M potassium phosphate, pH 7.4, with 0.2-per-cent sodium cholate and 0.53 mM linoleic acid. The enzyme concentration was […] in the sample for measurement. The substances submitted for testing were dissolved in methyl glycol (fresh distillation in vacuum) and pre-incubated ten minutes with the enzyme at measurement temperature and in the absence of sodium cholate and linoleic acid. […] No remarkable inhibition occurred to control samples under these conditions. Enzyme reaction was started by addition of sodium cholate and linoleic acid. The titration curve of inhibition and, consequently, the concentrations required for inhibition by the order of 50 per cent were determined by variation of active substance concentrations. For comparison, the compounds were tested also on commercial lipoxygenase-1 from soybean.

[4] = tested on: lung strip isolated from guinea pig; test: arachidonic acid-induced contraction of lung strip isolated from guinea pig; details: Cavia porcellus; 10 μM compound; 0.1 μM to 100 μM arachidonic acid; read-out: reduction in contractile response to arachidonic acid
Excerpt: Action of 5-methyl-2-hydroxy-laurophenone-oxime on arachidonic acid-inducedcontraction of lung strip isolated from guinea pig:
The experimental arrangement for this test system was analogous to that described in Example 15, through lung strip isolated from guinea pig was the subject of testing. Contraction, in this test, was induced by rising concentrations of arachidonic acid (concentrated solution in ethanol, kept in N2 atmosphere) and cumulatively measured.

CCCCCCCCCCCC(=NO)c1cc(C)ccc1O [5-methyl-2-hydroxy-laurophenone-oxime]
solubility in water [1]: limited solubility in water
Inhibition of carrageenin-induced oedema ([2]; 0.5 hr, + significant, P < 0.05): 43%
Inhibition of carrageenin-induced oedema ([2]; 1 hr, + significant, P < 0.05): 47%
Inhibition of carrageenin-induced oedema ([2]; 2 hr, + significant, P < 0.05): 34%
Inhibition of carrageenin-induced oedema ([2]; 3 hr, + significant, P < 0.05): 34%
Inhibition of carrageenin-induced oedema ([2]; 4 hr, not marked significant): 31%
Inhibition of carrageenin-induced oedema ([2]; 5 hr, not marked significant): 29%
IC50 ([3]; limited by solubility, real I50 said to be very much lower, read-out: half-inhibition concentration (I50)): 7 µM
inhibition at 1000 µM ([3]; ultimate concentration 1.0 mM, read-out: Inhibition (percent) of lipoxygenase from reticulocytes): 100%
inhibition at 10 µM [4]: 70%
